Assay results: PMC10283052, “Intranasal delivery of mitochondrial protein humanin rescues cell death and promotes mitochondrial function in Parkinson's disease” (Theranostics, 2023)

Key:
[1] = test system: SH-SY5Y cells; test: Mitochondrial mass and network morphology, MitoTracker Green; type: cell-based, human; conditions: HN 20 μM, 24 h
Procedure: For staining, the cells were seeded on PDL-coated glass slides and treated as indicated above. The samples were fixed using methanol and permeabilized using 0.1% Triton X-100 in PBS. After blocking with 5% bovine serum albumin (BSA), the cells were incubated with the appropriate primary antibody [anti-HN (1:500, Cat no # RA19000, Neuromics, Edina, MN, USA), anti-TH (1:500, Cat no # P40101, Pel-Freez Biologicals, Rogers, AR, USA), anti-lectin (1:200, Cat no # L32482, Thermo Fisher Scientific), anti-α-SMA (1:500, Cat no # ab5694, Abcam, Cambridge, MA, USA), and anti-GFAP (1:200, Cat no # sc-33673, Santa Cruz, Santa Cruz, USA)]. After incubation, the samples were washed and incubated with Alexa Fluor 594- or 488-conjugated antibodies (Thermo Fisher Scientific). The nuclei were stained using Hoechst 33342 (Sigma-Aldrich) and mounted using an anti-fade solution (Thermo Fisher Scientific). Fluorescent images were captured at the Neuroscience Translational Research Solution Center (Busan, South Korea) using an LSM 700 confocal microscope (Zeiss, Jena, Germany). The mitochondrial network morphology was assessed using the FIJI/ImageJ software as described previously.

[2] = test system: SH-SY5Y cells; test: Real-time qPCR of genes of mitochondrial function; type: cell-based, human; conditions: HN 20 μM, 24 h
Procedure: For real-time qPCR, total RNA was extracted using TRIzol reagent (Thermo Fisher Scientific). cDNA was synthesized using a cDNA synthesis kit (Bioneer Corporation), according to the manufacturer's protocol. The mRNA levels were analyzed in a LightCycler 96 (Roche, Basel, Switzerland) using SYBR Green I master mix and SensiFAST™ SYBR® No-ROX Kit (Bioline, Paris, France). B2M (beta-2-microglobulin) gene expression was used to normalize gene expression data. The primer sequences used in this experiment are in Table S2.

[3] = test system: MPTP mouse model of PD; test: MPTP mouse model of PD, intranasal HN; type: in vivo; conditions: intranasal HN 0.1 and 5 mg/kg
Procedure: A mouse model of PD was generated using the neurotoxin MPTP-HCl (Sigma-Aldrich, St. Louis, MO, USA), as previously described. Seven- to eight-week-old male C57BL/6J mice were injected with MPTP (20 mg/kg/day) for five consecutive days for the subacute delivery of MPTP. The mice in the control group received the same volume of phosphate buffer saline (PBS).
For intranasal HN treatment, the synthetic HN peptide was delivered according to a procedure reported by Capsoni et al. The synthetic HN peptide was diluted in ddH2O to a concentration of 0.1 and 5 mg/kg for mice (total volume of 40 μL) at 37 ℃ with mild stirring. The mice were held firmly in one hand in a supine position with their head at 90°. Synthetic HN was administered in the form of 5-μL drops over 20 min in alternating nostrils every 3 min. After administration, the heads of the mice were held in the same position to prevent loss of the applied solution from the nares.
To stain the mouse brain tissue samples, transcardial perfusion was performed using PBS and 4% paraformaldehyde in PBS. The brain and trigeminal ganglia were removed, post-fixed using 4% paraformaldehyde in PBS, and stored in a 30% sucrose solution at 4 ℃ until they sank. Coronal sections were prepared (thickness: 10 µm) using a sliding microtome. After blocking with 5% BSA, the samples were incubated with the appropriate primary antibody as mentioned above. After incubation with the primary antibodies, the tissue samples were incubated with Alexa Fluor 594- or 488-conjugated antibodies (Thermo Fisher Scientific) for immunofluorescence or with secondary biotinylated anti-rabbit IgG (H+L) (Vector Laboratories, Burlingame, CA, USA) for immunohistochemistry. […] Mitochondrial network morphology was further assessed using the FIJI/ImageJ software as described previously.
Mouse brain tissue samples and cells were homogenized in radioimmunoprecipitation assay (RIPA) buffer (Cell Signaling, Danvers, MA, USA) in the presence of a protease and phosphatase inhibitor cocktail (Thermo Fisher Scientific). […] The results were analyzed using the ImageJ densitometry system. […]

## humanin (MAPRGFSCLLLLTSEIDLPVKRRA; Humanin; UniProt Q8IVG9 1-24, looked up) [HN, mitochondria-derived peptide encoded by the mitochondrial genome, synthesized by Fmoc-based SPPS at GL Biochem]
[1]; versus DMSO
  mitochondrial branch length: longer rods and branches of mitochondria
  mitochondrial volume: increase in mitochondrial volume
  number of branches per mitochondrial network: increase
[1]; MitoTracker Green
  mitochondrial mass: increased mitochondrial mass
[2]
  transcript levels of mitochondrial biogenesis (PGC-1α, NRF1, ESRRA) and oxidative phosphorylation (SDHA, ATP5F1A, ATP5F1D) genes: significant increase
[2]; ACC2, ACLY, FASN, IDH3A
  expression of fatty acid metabolism and TCA cycle genes: a significant alteration was not observed
[3]; MPTP 20 mg/kg/day for 5 days
  motor function, pole test: steady motor improvements in a dose-dependent manner
[3]; dose-dependent, TH staining, stereology
  TH expression, dopaminergic neurons of substantia nigra pars compacta: significantly restored TH expression
[3]; three independent blots
  TH protein in striatum lysates, western blot: confirmed the impact of intranasal delivery of HN on protecting TH^+ dopaminergic neurons
